Assay: Solubility of targeting ligand phosphoramidite compounds in oligonucleotide synthesis solvent (Example 5)
Format: physicochemical
Settings: for solubility relative to Structure 103d: solvents for oligonucleotide synthesis
From the text: The compositions were solubilized in dichloromethane (DCM) and dried over sieves.

Row | Compound | solubility relative to Structure 103d | dissolution under standard conditions (standard concentrations and solvent conditions typical for oligonucleotide synthesis)
1 | CC(=O)NC1C(OCCOCCNC(=O)CCC(NC(=O)CCC(NC(=O)CCOCCOCCOCCOCCOCCOCCOP(OCCC#N)N(C(C)C)C(C)C)C(=O)NCCOCCOC2OC(COC(C)=O)C(OC(C)=O)C(OC(C)=O)C2NC(C)=O)C(=O)NCCOCCOC2OC(COC(C)=O)C(OC(C)=O)C(OC(C)=O)C2NC(C)=O)OC(COC(C)=O)C(OC(C)=O)C1OC(C)=O (stereo not drawn) [Structure 101d, Tri-NAG-bis-Glu-NH-PEG6 phosphoramidite] | greater solubility | –
2 | CC(=O)NC1C(OCCOCCNC(=O)CCC(NC(=O)CCC(NC(=O)CCOCCOCCOCCOCCOCCOCCOCCOCCOP(OCCC#N)N(C(C)C)C(C)C)C(=O)NCCOCCOC2OC(COC(C)=O)C(OC(C)=O)C(OC(C)=O)C2NC(C)=O)C(=O)NCCOCCOC2OC(COC(C)=O)C(OC(C)=O)C(OC(C)=O)C2NC(C)=O)OC(COC(C)=O)C(OC(C)=O)C1OC(C)=O (stereo not drawn) [Structure 102d, Tri-NAG-bis-Glu-NH-PEG8 Phosphoramidite] | greater solubility | –
3 | CC(=O)NC1C(OCCOCCNC(=O)CCC(NC(=O)CCC(NC(=O)CCOCCOCCOCCOCCOP(OCCC#N)C(C(C)C)C(C)C)C(=O)NCCOCCOC2OC(COC(C)=O)C(OC(C)=O)C(OC(C)=O)C2NC(C)=O)C(=O)NCCOCCOC2OC(COC(C)=O)C(OC(C)=O)C(OC(C)=O)C2NC(C)=O)OC(COC(C)=O)C(OC(C)=O)C1OC(C)=O (stereo not drawn) [Structure 103d, Tri-NAG-bis-Glu-NH-PEG4 phosphoramidite] | – | difficult to dissolve
